# Assay: Log P by HPLC on reversed phase columns (EEC directive 79/831 Annex V.A8)
# Format: physicochemical
# Protocol: In the above tables, measurement of Log P values was performed according to EEC directive 79/831 Annex V.A8 by HPLC (High Performance Liquid Chromatography) on reversed phase columns with the following methods: • ^[a] Log P value is determined by measurement of LC-UV, in an acidic range, with 0.1% formic acid in water and acetonitrile as eluent (linear gradient from 10% acetonitrile to 95% acetonitrile). • ^[b] Log P value is determined by measurement of LC-UV, in a neutral range, with 0.001 molar ammonium acetate solution in water and acetonitrile as eluent (linear gradient from 10% acetonitrile to 95% acetonitrile). • ^[c] Log P value is determined by measurement of LC-UV, in an acidic range, with 0.1% phosphoric acid and acetonitrile as eluent (linear gradient from 10% acetonitrile to 95% acetonitrile). If more than one Log P value is available within the same method, all the values are given and separated by “+”. Calibration was done with straight-chain alkan2-ones (with 3 to 16 carbon atoms) with known Log P values (measurement of Log P values using retention times with linear interpolation between successive alkanones). Lambda-max-values were determined using UV-spectra from 200 nm to 400 nm and the peak values of the chromatographic signals.
# [1] = method [a], compounds of formula (I), Table 1.1
# [2] = method [a]: LC-UV, acidic range, 0.1% formic acid in water and acetonitrile
# [3] = LogP method [a], compounds of formula (I), Table 1.1
# [4] = method marker [a] given with each value, Table 1.1, compounds of formula (I)
smiles,measurement,setting,value
CCOC(=O)C1(NC(=O)c2sc(Cl)c(Br)c2C)CC1 [1.0065],LogP,[1],3.17^[a]
Cc1c(C(=O)N[C@H]2CCSC2=O)sc(C#N)c1Br [I.0866],LogP,[2],2.39^[a]
N#CC1(NC(=O)c2sc(Br)c(Br)c2Cl)CCSCC1 [1.0868],LogP,method [a],3.71^[a]
CCOC(=O)CNC(=O)c1sc(C)c(Cl)c1F [1.0793],LogP,method [a],2.54^[a]
Cc1c(Cl)sc(C(=O)O)c1Cl [II.074],LogP,[2],2.76^[a]
COC(=O)C1(NC(=O)c2sc(Br)c(Br)c2C#N)CCC1 [1.0806],LogP,method [a],2.87^[a]
"NC(=O)CNC(=O)c1sc(Br)c(Br)c1F [I.0894, N-(2-amino-2-oxoethyl)-4,5-dibromo-3-fluorothiophene-2-carboxamide]",chromatographic logP,"reversed phase HPLC columns, value in preparation example, method not marked",1.69
COC(=O)C1(NC(=O)c2sc(Cl)c(Cl)c2Br)CCC1 [1.0613],LogP,method [a],3.67^[a]
COC(=O)C(Cc1c[nH]cn1)NC(=O)c1sc(Br)c(Cl)c1C (stereo not shown) [1.0129],LogP,[1],1.47^[a]
COC(=O)C(NC(=O)c1sc(Br)c(Br)c1C(F)F)C1CC1 (stereo not shown) [1.0358],LogP,method marked [a],3.37^[a]
CCOC(=O)C1(NC(=O)c2sc(Br)c(C#N)c2Cl)CCC1 [1.0673],LogP,method marked [a],3.30^[a]
CCOC(=O)[C@H](CO)NC(=O)c1sc(Br)c(Cl)c1C [1.0841],LogP,method [a],2.59^[a]
O=C(O)CNC(=O)c1cc(Cl)c(Br)s1 [1.0247],LogP,method [a],1.79^[a]
COC(=O)c1sc(Cl)c(Br)c1Cl [II.027],LogP,[2],3.94^[a]
COC(=O)C(CC(F)F)NC(=O)c1cc(Br)c(Cl)s1 (stereo not shown) [1.0438],LogP,[3],3.07^[a]
COC(=O)c1sc(Br)c(C(F)F)c1Br [II.075],LogP,[2],3.54^[a]
CCOC(=O)CCNC(=O)c1cc(Cl)c(Br)s1 [1.0462],LogP,[3],2.77^[a]
CCCOC(=O)C1(NC(=O)c2sc(Cl)c(Cl)c2Br)CCC1 [1.0879],LogP,method [a],4.74^[a]
COC(=O)CNC(=O)c1sc(Cl)c(Cl)c1C(F)F [1.0415],LogP,[3],2.61^[a]
CNC(=O)C1(NC(=O)c2sc(Br)c(Br)c2Cl)CC1 [1.0920],LogP,method [a],2.31^[a]
COC(=O)c1sc(Br)c(Br)c1C(F)(F)F [II.019],LogP,[2],4.08^[a]
Cc1c(C(=O)NCC(=O)OC2CCCC2)sc(C#N)c1Br [1.0965],LogP,[4],3.24^[a]
COC(=O)CNC(=O)c1sc(Cl)c(Br)c1Br [1.0207],LogP,method [a],2.91^[a]
CCOC(=O)C1(NC(=O)c2sc(Cl)c(Cl)c2C(F)F)CC1 [1.0414],LogP,[3],3.17^[a]
N#Cc1c(C(=O)NCC(N)=O)sc(Cl)c1Cl [1.0916],LogP,method [a],1.47^[a]
COC(=O)C1(NC(=O)c2sc(C#N)c(Br)c2Cl)CC1 [1.0602],LogP,method [a],2.44^[a]
CCOC(=O)C(NC(=O)c1sc(Br)c(Br)c1Cl)C(C)C (stereo not shown) [1.0145],LogP,method [a],4.92^[a]
CCOC(=O)C(NC(=O)c1cc(Cl)c(C#N)s1)C(C)C (stereo not shown) [1.0389],LogP,method marked [a],3.22^[a]
CCOC(=O)C(C)(C)NC(=O)c1sc(Cl)c(Br)c1C [1.0760],LogP,method marked [a],3.66^[a]
Cc1c(C(=O)O)sc(Br)c1C#N [II.007],LogP,[2],2.03^[a]
COC(=O)C(C)(C)NC(=O)c1sc(C#N)c(Br)c1Cl [1.0589],LogP,method [a],2.93^[a]
COC(=O)C(C1CC1)N(O)C(=O)c1sc(Br)c(Br)c1F (stereo not shown) [1.0413],LogP,[3],2.77^[a]
CCOC(=O)C1(NC(=O)c2sc(Br)c(Br)c2C#N)CC1 [1.0799],LogP,method [a],2.73^[a]
CCOC(=O)C1(NC(=O)c2sc(F)c(Br)c2Br)CCC1 [1.0713],LogP,method marked [a],3.88^[a]
COC(=O)c1sc(Cl)c(Br)c1C#N [II.077],LogP,[2],2.99^[a]
CCOC(=O)c1sc(Cl)c(Br)c1F [II.067],LogP,[2],4.08^[a]
CCOC(=O)C1(NC(=O)c2sc(Cl)c(Br)c2Br)CSC1 [1.1060],LogP,[4],3.91^[a]
N#CCNC(=O)c1sc(Br)c(Br)c1C#N [1.0802],LogP,method [a],2.11^[a]
CCOC(=O)C(NC(=O)c1sc(F)c(Br)c1Br)C(C)C (stereo not shown) [1.0709],LogP,method marked [a],4.48^[a]
COC(=O)CC1(NC(=O)c2sc(Cl)c(Br)c2C)CC1 [1.0032],LogP,[1],3.04^[a]
CCOC(=O)C(CO)NC(=O)c1sc(Cl)c(Cl)c1C#N (stereo not shown) [1.0810],LogP,method [a],2.23^[a]
COC(=O)c1sc(Br)c(C#N)c1C [II.029],LogP,[2],3.06^[a]
C#CCOC(=O)CNC(=O)c1sc(Cl)c(Cl)c1C#N [1.0910],LogP,method [a],2.58^[a]
CCOC(=O)[C@H](CO)NC(=O)c1sc(Br)c(Br)c1C [1.0843],LogP,method [a],2.64^[a]
CC(C)COC(=O)c1sc(Cl)c(Br)c1F [II.060],LogP,[2],5.28^[a]
COC(=O)C(Cc1c[nH]cn1)NC(=O)c1sc(Cl)c(Br)c1C (stereo not shown) [1.0124],LogP,[1],1.48^[a]

# Reference: patent US12642270B2, “Substituted thiophene carboxamides, thiophene carboxylic acids and derivatives thereof” (Bayer Aktiengesellschaft, priority 2019, dated 2026)
